Publication PMC10913484, “Hydroxyhexylitaconic acids as potent IMP-type metallo-β-lactamase inhibitors for controlling carbapenem resistance in Enterobacterales” (Microbiology Spectrum, 2024)
Values after ≈ are worked out from the molar mass of the structure shown. Where two headings read alike, the source gives them in different places.

How the values were obtained:
E. coli NUBL-24 (IMP-1) = assay: Susceptibility test, clinical isolate; assay type: cell-based; conditions: Escherichia coli
Experimental: (§1) Susceptibility testing, based on the microdilution method, was performed according to the guidelines of the Clinical and Laboratory Standards Institute ([36]).

[1] = test system: K. pneumoniae AR0076 (VIM-1); assay: Susceptibility test, clinical isolate; assay type: cell-based; conditions: Klebsiella pneumoniae
Experimental: as §1

[2] = test system: K. pneumoniae NUBL-8 (IMP-1); assay: Susceptibility test, clinical isolate; assay type: cell-based; conditions: Klebsiella pneumoniae
Experimental: as §1

[3] = test system: K. pneumoniae AR0034 (IMP-4); assay: Susceptibility test, clinical isolate; assay type: cell-based; conditions: Klebsiella pneumoniae
Experimental: as §1

E. coli NUBL-22 (IMP-6) = assay: Susceptibility test, clinical isolate; assay type: cell-based; conditions: Escherichia coli
Experimental: as §1

E. coli 465 (IMP-1) = assay: Susceptibility test, clinical isolate; assay type: cell-based; conditions: Escherichia coli
Experimental: as §1

[4] = test system: E. cloacae NUBL-5 (IMP-1); assay: Susceptibility test, clinical isolate; assay type: cell-based; conditions: Enterobacter cloacae
Experimental: as §1

[5] = test system: IMP-1-producing E. coli NUBL-24; assay: Time-killing assay; assay type: cell-based; conditions: 12-h incubation
Experimental: The initial density of IMP-1-producing E. coli NUBL-24 (MPM MIC, 8 µg/mL) was adjusted to approximately 5 × 10^6 colony-forming units (cfu)/mL. Either MPM (1 µg/mL) or 9-HHIA/10-HHIA (50 µg/mL) alone or a combination of the two was added to the bacterial solution, and then incubation was performed at 37°C. LB broth containing bacteria alone was used as a control. At 0, 2, 4, 8, and 12 h after adding the agents, an aliquot of the bacterial culture was removed, diluted, and spotted on LB agar plates to count the viable bacterial cells. The detection limit was set at 333 cfu/mL.

IMP-1 [6] = target: T1, IMP-1 (Serratia marcescens, UniProt P52699); assay type: binding; conditions: DSF; control protein 52.5°C
T1 construct: made in house
T1 sequence (P52699 19-246, looked up, species assumed): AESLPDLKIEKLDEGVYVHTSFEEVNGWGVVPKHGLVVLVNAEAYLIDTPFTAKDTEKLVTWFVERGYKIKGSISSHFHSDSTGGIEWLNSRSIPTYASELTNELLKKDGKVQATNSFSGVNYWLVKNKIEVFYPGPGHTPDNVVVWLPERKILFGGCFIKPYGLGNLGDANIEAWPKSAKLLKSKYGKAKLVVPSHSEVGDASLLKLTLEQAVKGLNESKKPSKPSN
Experimental: The DSF assay was performed using the Protein Thermal Shift Dye Kit (Thermo Fisher Scientific) and StepOnePlus Real-Time PCR Systems (Applied Biosystems) as follows: 2 µL of IMP-1 enzyme (100 µM), 1 µL of EDTA or HHIA solution (5 mM), 2.5 µL of diluted Protein Thermal Shift Dye (32×), 5 µL of Protein Thermal Shift buffer, and 9.5 µL of water were mixed in a test tube and incubated for 15 min at 4°C. Four replicates of each sample were performed. The fluorescence was monitored at 0.7°C increments from 4°C to 99°C. The relative fluorescence units were fitted with the Boltzmann equation using the TSA-CRAFT software to determine the melting point (Tm) ([47]).

E. coli DH5α pBC-NDM-1 = assay: Susceptibility test (microdilution), transformant; assay type: cell-based; conditions: for MPM MIC: E. coli DH5α pBC-NDM-1
Experimental: as §1

E. coli DH5α pCL-SMB-1 = assay: Susceptibility test (microdilution), transformant; assay type: cell-based; conditions: for MPM MIC: E. coli DH5α pCL-SMB-1
Experimental: as §1

E. coli DH5α pBC-IMP-1 = assay: Susceptibility test (microdilution), transformant; assay type: cell-based; conditions: Escherichia coli
Experimental: as §1

NDM-1 = target: T2, NDM-1 (Klebsiella pneumoniae, UniProt C7C422); assay: In vitro inhibition assay (IPM hydrolysis); assay type: biochemical; conditions: even at high doses (100 µM)
T2 construct: made in house
T2 sequence (C7C422 29-270 limits assumed): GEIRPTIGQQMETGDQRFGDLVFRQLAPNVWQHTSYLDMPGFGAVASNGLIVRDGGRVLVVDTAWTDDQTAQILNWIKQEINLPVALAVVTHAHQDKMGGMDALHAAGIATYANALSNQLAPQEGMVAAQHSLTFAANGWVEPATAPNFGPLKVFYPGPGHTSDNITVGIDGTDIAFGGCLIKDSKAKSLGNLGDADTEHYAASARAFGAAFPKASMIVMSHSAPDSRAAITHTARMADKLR
Experimental: (§2) MBLs were incubated with HHIAs in 20 mM HEPES buffer (pH 7.5) containing 200 mM NaCl and 50 µg/mL BSA at 30°C for 5 min. IPM was added at a concentration of 100 µM, and the rate of IPM hydrolysis was monitored at 297 nm. The initial velocity (v0) rates were plotted against HHIA’s logarithmic concentrations, and the data were fitted to a four-parameter variable slope to obtain the half-maximal inhibitor concentration (IC50) values using GraphPad Prism 9 software (GraphPad Software). The inhibition constant (Ki) was determined as follows: v0 was measured after varying the concentrations of IPM and HHIAs, and inverse v0 (1/v0) was plotted against the inverse IPM concentration [1/(IPM)]. Lineweaver–Burk plots were created to obtain Ki values under the competitive inhibition model using the SigmaPlot 14 suite (Hulinks).

IMP-1 [7] = target: T1, IMP-1; assay: In vitro inhibition assay (IPM hydrolysis); assay type: biochemical
Experimental: as §2

VIM-2 = target: T3, VIM-2 (Escherichia coli, UniProt Q5U7L7); assay: In vitro inhibition assay (IPM hydrolysis); assay type: biochemical
T3 construct: made in house
Experimental: as §2

SMB-1 = assay: In vitro inhibition assay (IPM hydrolysis); assay type: biochemical; conditions: even at high doses (100 µM)
Experimental: as §2

IMP-6 = target: T4, IMP-6 (Serratia marcescens, UniProt P52699, S214G); assay: In vitro inhibition assay (IPM hydrolysis); assay type: biochemical
T4 construct: made in house
T4 sequence (P52699 19-246 S214G): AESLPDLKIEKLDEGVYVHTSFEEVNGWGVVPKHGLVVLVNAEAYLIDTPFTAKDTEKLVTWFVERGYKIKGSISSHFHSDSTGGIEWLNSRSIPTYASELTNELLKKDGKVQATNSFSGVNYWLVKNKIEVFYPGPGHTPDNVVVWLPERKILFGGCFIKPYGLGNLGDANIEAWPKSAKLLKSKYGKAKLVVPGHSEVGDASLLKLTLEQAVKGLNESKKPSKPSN
Experimental: as §2

[8] = +HHIA 6.25 µg/mL, read-out: IPM MIC
[9] = +HHIA 6.25 μg/mL, read-out: MPM MIC
[10] = +HHIA 25 µg/mL, read-out: IPM MIC
[11] = +HHIA 25 μg/mL, read-out: MPM MIC
[12] = +HHIA 100 µg/mL, read-out: IPM MIC
[13] = +HHIA 100 μg/mL, read-out: MPM MIC
[14] = Escherichia coli, read-out: MPM MIC

C=C(C(=O)O)C(CCCCCCO)C(=O)O (stereo not drawn) [10-HHIA, 10-hydroxyhexylitaconic acid]
MIC (E. coli NUBL-24 (IMP-1); +HHIA 6.25 µg/mL, E. coli NUBL-24 (IMP-1), read-out: IPM MIC): 4 µg/mL (≈ 17.4 µM) | MIC (E. coli NUBL-24 (IMP-1); +HHIA 6.25 μg/mL, E. coli NUBL-24 (IMP-1), read-out: MPM MIC): 4 µg/mL (≈ 17.4 µM) | MIC (E. coli NUBL-24 (IMP-1); +HHIA 25 µg/mL, E. coli NUBL-24 (IMP-1), read-out: IPM MIC): 1 µg/mL (≈ 4.34 µM) | MIC (E. coli NUBL-24 (IMP-1); +HHIA 25 μg/mL, E. coli NUBL-24 (IMP-1), read-out: MPM MIC): 0.5 µg/mL (≈ 2.17 µM) | MIC (E. coli NUBL-24 (IMP-1); +HHIA 100 µg/mL, E. coli NUBL-24 (IMP-1), read-out: IPM MIC): 1 µg/mL (≈ 4.34 µM) | MIC (E. coli NUBL-24 (IMP-1); read-out: MPM MIC): 0.125 µg/mL (≈ 0.543 µM) | MIC [1, 8]: 32 µg/mL (≈ 139 µM) | MIC [1, 9]: 32 µg/mL (≈ 139 µM) | MIC [1, 10]: 32 µg/mL (≈ 139 µM) | MIC [1, 11]: 32 µg/mL (≈ 139 µM) | MIC [1, 12]: 16 µg/mL (≈ 69.5 µM) | MIC [1, 13]: 32 µg/mL (≈ 139 µM) | MIC [2, 8]: 2 µg/mL (≈ 8.69 µM) | MIC [2, 9]: 8 µg/mL (≈ 34.7 µM) | MIC [2, 10]: 1 µg/mL (≈ 4.34 µM) | MIC [2, 11]: 2 µg/mL (≈ 8.69 µM) | MIC [2, 12]: 0.5 µg/mL (≈ 2.17 µM) | MIC [2, 13]: 0.25 µg/mL (≈ 1.09 µM) | MIC ([3]; +HHIA 6.25 µg/mL, K. pneumoniae AR0034 (IMP-4), read-out: IPM MIC): 2 µg/mL (≈ 8.69 µM) | MIC ([3]; +HHIA 6.25 μg/mL, K. pneumoniae AR0034 (IMP-4), read-out: MPM MIC): 4 µg/mL (≈ 17.4 µM) | MIC ([3]; +HHIA 25 µg/mL, K. pneumoniae AR0034 (IMP-4), read-out: IPM MIC): 1 µg/mL (≈ 4.34 µM) | MIC ([3]; +HHIA 25 μg/mL, K. pneumoniae AR0034 (IMP-4), read-out: MPM MIC): 0.5 µg/mL (≈ 2.17 µM) | MIC ([3]; +HHIA 100 µg/mL, K. pneumoniae AR0034 (IMP-4), read-out: IPM MIC): 0.5 µg/mL (≈ 2.17 µM) | MIC ([3]; read-out: MPM MIC): 0.125 µg/mL (≈ 0.543 µM) | MIC (E. coli NUBL-22 (IMP-6); [8]): 1 µg/mL (≈ 4.34 µM) | MIC (E. coli NUBL-22 (IMP-6); [9]): 16 µg/mL (≈ 69.5 µM) | MIC (E. coli NUBL-22 (IMP-6); [10]): 0.5 µg/mL (≈ 2.17 µM) | MIC (E. coli NUBL-22 (IMP-6); [11]): 8 µg/mL (≈ 34.7 µM) | MIC (E. coli NUBL-22 (IMP-6); [12]): 0.5 µg/mL (≈ 2.17 µM) | MIC (E. coli NUBL-22 (IMP-6); [13]): 1 µg/mL (≈ 4.34 µM) | MIC (E. coli 465 (IMP-1); [8]): 16 µg/mL (≈ 69.5 µM) | MIC (E. coli 465 (IMP-1); [9]): 16 µg/mL (≈ 69.5 µM) | MIC (E. coli 465 (IMP-1); [10]): 4 µg/mL (≈ 17.4 µM) | MIC (E. coli 465 (IMP-1); [11]): 4 µg/mL (≈ 17.4 µM) | MIC (E. coli 465 (IMP-1); [12]): 1 µg/mL (≈ 4.34 µM) | MIC (E. coli 465 (IMP-1); [13]): 0.25 µg/mL (≈ 1.09 µM) | MIC [4, 8]: 8 µg/mL (≈ 34.7 µM) | MIC [4, 9]: 16 µg/mL (≈ 69.5 µM) | MIC [4, 10]: 4 µg/mL (≈ 17.4 µM) | MIC [4, 11]: 16 µg/mL (≈ 69.5 µM) | MIC [4, 12]: 1 µg/mL (≈ 4.34 µM) | MIC [4, 13]: 8 µg/mL (≈ 34.7 µM) | Time-kill: effect on growth, HHIA alone ([5]; 50 µg/mL alone): did not affect the growth | Time-kill: MPM-HHIA combination ([5]; MPM 1 µg/mL + HHIA 50 µg/mL): did not permit the re-growth | Melting temperature (Tm) of treated IMP-1 (IMP-1 [6]): 55.6 °C | MPM MIC (E. coli DH5α pBC-NDM-1; +agent 25 μg/mL): 64 µg/mL | MPM MIC (E. coli DH5α pBC-NDM-1; +agent 100 μg/mL): 64 µg/mL | MIC (E. coli DH5α pBC-NDM-1; [14]): 64 µg/mL (≈ 278 µM) | MPM MIC (E. coli DH5α pCL-SMB-1; +agent 25 μg/mL): 32 µg/mL | MPM MIC (E. coli DH5α pCL-SMB-1; +agent 100 μg/mL): 32 µg/mL | MIC (E. coli DH5α pCL-SMB-1; [14]): 32 µg/mL (≈ 139 µM) | MIC (E. coli DH5α pBC-IMP-1; read-out: MPM MIC, +agent 25 μg/mL): 0.125 µg/mL (≈ 0.543 µM) | MIC (E. coli DH5α pBC-IMP-1; read-out: MPM MIC, +agent 100 μg/mL): ≤ 0.0625 µg/mL | Inhibition of hydrolyzing activity of NDM-1 (NDM-1): did not inhibit | IC50 (IMP-1 [7]): 31.6 µM | Ki (IMP-1 [7]): 5 µM | Inhibition mode for IMP-1 (IMP-1 [7]; Lineweaver–Burk plots): competitive inhibitors | Inhibitory activity against VIM-2 (VIM-2): moderate | Inhibition of hydrolyzing activity of SMB-1 (SMB-1): did not inhibit | Ki (IMP-6): 21 µM
